{
  "source": "ChEMBL document CHEMBL1139677",
  "about": "“DNA interstrand crosslinking agents: synthesis, DNA interactions, and cytotoxicity of dimeric achiral seco-amino-CBI and conjugates of achiral seco-amino-CBI with pyrrolobenzodiazepine (PBD)” (Bioorg Med Chem Lett, 2006)",
  "key": {"P815 [1]": {"test_system": "P815", "test": "Cytotoxicity against mouse P815 cells after 3 days", "type": "cell-based", "details": "P815, 72 h"}, "[2]": {"test": "Induction of supercoiled pBR322 DNA strand cleavage", "type": "functional"}, "[3]": {"test": "Induction of pBR322 DNA alkylation at 100 uM by thermally induced cleavage assay", "type": "functional"}, "[4]": {"test": "Induction of linear pBR322 DNA interstrand crosslinking", "type": "functional"}, "P815 [5]": {"test_system": "P815", "test": "Cell cycle arrest in mouse P815 cells by accumulation at subG0 phase at 0.026 uM", "type": "functional"}, "[6]": {"test": "Induction of supercoiled pBR322 DNA strand cleavage at 6.6 uM", "type": "functional"}, "[7]": {"test": "Induction of linear pBR322 DNA interstrand crosslinking at 10 uM", "type": "functional"}, "[8]": {"test": "Induction of pBR322 DNA alkylation at 1 uM by thermally induced cleavage assay", "type": "functional"}, "[9]": {"test": "Induction of pBR322 DNA alkylation at 10 uM by thermally induced cleavage assay", "type": "functional"}, "[10]": {"test": "Induction of pBR322 DNA alkylation at 0.1 uM by thermally induced cleavage assay", "type": "functional"}},
  "note": "Activity calls are given as the source filed them. No cut-off for these calls is given here.",
  "data": [
    {"compound": "COC(=O)CCOc1cc2c(cc1OC)C(=O)N1CCC[C@H]1C=N2", "values": [
      {"measurement": "IC50", "setting": "P815 [1]", "result": 55000, "unit": "nM"},
      {"measurement": "Activity", "setting": "[2]", "result": 4, "unit": "%"},
      {"measurement": "Activity", "setting": "[3]", "result": "inactive"}
    ]},
    {"compound": "COc1cc2cc(C(=O)Nc3cc(N)c4ccccc4c3CCCl)[nH]c2c(OC)c1OC", "note": "[CENTANAMYCIN]", "values": [
      {"measurement": "IC50", "setting": "P815 [1]", "result": 68, "unit": "nM"}
    ]},
    {"compound": "C=C1C[C@H]2C=Nc3cc(OCCCOc4cc5c(cc4OC)C(=O)N4CC(=C)C[C@H]4C=N5)c(OC)cc3C(=O)N2C1", "values": [
      {"measurement": "Activity", "setting": "[4]", "result": "Active"}
    ]},
    {"compound": "COc1cc2cc(C(=O)N3CC(CCl)c4c3cc(O)c3ccccc43)[nH]c2c(OC)c1OC", "note": "(stereo not given)", "values": [
      {"measurement": "IC50", "setting": "P815 [1]", "result": 8.6, "unit": "nM"}
    ]},
    {"compound": "COc1cc2c(cc1OCCC(=O)Nc1ccc3oc(C(=O)Nc4cc(O)ccc4CCCl)cc3c1)N=C[C@@H]1CCCN1C2=O", "values": [
      {"measurement": "IC50", "setting": "P815 [1]", "result": 560, "unit": "nM"}
    ]},
    {"compound": "COc1cc2c(cc1OCCC(=O)Nc1ccc3oc(C(=O)Nc4cc(N)c5ccccc5c4CCCl)cc3c1)N=C[C@@H]1CCCN1C2=O", "values": [
      {"measurement": "IC50", "setting": "P815 [1]", "result": 26, "unit": "nM"},
      {"measurement": "Activity", "setting": "P815 [5]", "result": 21, "unit": "%"},
      {"measurement": "Activity", "setting": "[6]", "result": 16, "unit": "%"},
      {"measurement": "Activity", "setting": "[7]", "result": "Active"},
      {"measurement": "Activity", "setting": "[8]", "result": "Active"},
      {"measurement": "Activity", "setting": "[9]", "result": "Active"}
    ]},
    {"compound": "Nc1cc(NC(=O)c2cc3cc(NC(=O)Nc4ccc5oc(C(=O)Nc6cc(N)c7ccccc7c6CCCl)cc5c4)ccc3o2)c(CCCl)c2ccccc12", "values": [
      {"measurement": "IC50", "setting": "P815 [1]", "result": 42000, "unit": "nM"}
    ]},
    {"compound": "COc1c(O)c2c(c3cc(C(=O)N4CCc5c4c(O)c(OC)c4[nH]c(C(=O)N6C[C@H]7C[C@@]78C6=CC(=O)c6[nH]cc(C)c68)cc54)[nH]c13)CCN2C(N)=O", "values": [
      {"measurement": "Activity", "setting": "[10]", "result": "Active"}
    ]}
  ]
}
